Values joined by “and” are separate entries in the source; they are usually repeats but may differ in a detail not shown here. Equal values may be shown once.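 48-hour exposure; five concentrations; linearly interpolated endpoints. GI50: concentration for 50% inhibition of growth. At the TGI there is no net growth.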
Legend:
Assay in all cases: DTP human tumour cell line panel, 48 h
UACC-62 melanoma = tested on: UACC-62 melanoma
KM12 colon = tested on: KM12 colon
COLO 205 colon = tested on: COLO 205 colon
SK-MEL-2 melanoma = tested on: SK-MEL-2 melanoma
PC-3 prostate = tested on: PC-3 prostate
ACHN renal = tested on: ACHN renal
HS 578T breast = tested on: HS 578T breast
OVCAR-3 ovarian = tested on: OVCAR-3 ovarian
SF-539 CNS = tested on: SF-539 CNS
A498 renal = tested on: A498 renal

Compound	TGI (UACC-62 melanoma)	TGI (KM12 colon)	TGI (COLO 205 colon) [µM]	TGI (SK-MEL-2 melanoma) [µM]	TGI (PC-3 prostate) [µM]	TGI (ACHN renal)	TGI (HS 578T breast) [µM]	TGI (OVCAR-3 ovarian)	TGI (SF-539 CNS)	TGI (A498 renal)	GI50 (UACC-62 melanoma) [µM]	GI50 (KM12 colon) [µM]	GI50 (COLO 205 colon) [µM]	GI50 (PC-3 prostate) [µM]	GI50 (ACHN renal) [µM]	GI50 (A498 renal) [µM]
CC(=O)Nc1nc2c(=O)c3ccccc3sc2s1	> 100 µM	> 100 µM	> 100	> 100	> 100	> 100 µM	> 100	> 100 µM	> 100 µM	> 100 µM						
C[C@H]1CCC/C=C/[C@@H]2C[C@H](OC(=O)CN(C)C)C[C@H]2[C@H](O)/C=C/C(=O)O1	22.1 µM	0.235 µM	0.0997	1.36	8.74	11.4 µM	> 10.5	> 26.8 µM	> 48.2 µM	> 32.3 µM						
Cc1cn([C@H]2C[C@@H](N3C(=O)c4ccccc4C3=O)[C@@H](CO[Si](C)(C)C(C)(C)C)O2)c(=O)[nH]c1=O	74.9 µM	> 100 µM	> 100	> 100	> 100	> 100 µM	> 100	> 100 µM	> 100 µM	> 100 µM						
Clc1ccc(C(OCn2ccnc2)c2nc3ccccc3[nH]2)c(Cl)c1 (stereo not drawn)	> 100 µM	> 100 µM	> 100	> 100	> 100	> 100 µM	> 100	> 100 µM	> 100 µM	> 100 µM						
Cc1nc2ccc(S(=O)(=O)O)cc2c(=O)n1-c1ccc(C(=O)NN2C(=O)C(Cl)C2c2cccs2)cc1 (stereo not drawn)	> 100 µM	> 100 µM	> 100	54.1	> 100	> 100 µM	> 100	> 100 µM	> 100 µM	> 100 µM						
COC(=O)/C(=N\N)C(C(=O)C(=O)Nc1cc(Cl)ccc1Cl)c1nc2ccc([N+](=O)[O-])cc2[nH]c1=O (stereo not drawn)	> 100 µM	> 100 µM		> 100	> 100	> 100 µM	> 100	> 100 µM	> 100 µM	> 100 µM						
COC(=O)C(=O)C(C(=O)C(=O)Nc1cccc(OC)c1)c1nc2ccc(Cl)cc2[nH]c1=O (stereo not drawn)	> 100 µM	> 100 µM	> 100	> 100	> 100	> 100 µM	> 100	> 100 µM	> 100 µM	> 100 µM						
O=C(OC1OC2COC(=O)c3cc(O)c(O)c(O)c3-c3c(cc(O)c(O)c3O)C(=O)OC3C2OC(=O)[C@@]24CC(=O)[C@@](O)(OC25C(=O)O[C@H]2[C@@H](O)CO[C@@]25O)C2(O)Oc5c(O)c(O)cc(c5C24)C(=O)OC13)c1cc(O)c(O)c(O)c1 (stereo partly drawn)	> 100 µM	68.6 µM	> 100	> 100	> 100	> 100 µM	> 100	> 100 µM		> 100 µM						
C/C=C(/CCC1NCCc2c1[nH]c1ccccc21)[Si](C)(C)C (stereo not drawn)	> 100 µM and 26.5 µM	> 100 µM and 12.1 µM	3.92			> 100 µM and 21.5 µM		> 100 µM and 13.9 µM	> 100 µM and 13.1 µM	72 µM and 23.5 µM						
CCOc1ccc(OP2(=O)NC(=O)C=C(C)N2)cc1 (stereo not drawn)	> 100 µM	> 100 µM	> 100	> 100		> 100 µM		> 100 µM	> 100 µM	> 100 µM						
C=CCN(c1cc(O)c2c(c(C)cn2S(=O)(=O)c2ccccc2)c1[N+](=O)[O-])S(C)(=O)=O		> 100 µM	> 100	> 100	> 100	> 100 µM	> 100	> 100 µM	> 100 µM	> 100 µM						
N/C(CCSCCSCC/C(N)=N\O)=N\O	> 100 µM	> 100 µM	> 100		> 100	> 100 µM	> 100	> 100 µM	> 100 µM							
COC(=O)N/N=c1\cc(C(=O)Nc2ccc(C)c(C)c2)oc2cc(O)ccc12	> 100 µM	> 100 µM	> 100	> 100		> 100 µM		> 100 µM	> 100 µM	> 100 µM						
O=C1/C(=C/c2ccc(Br)s2)NC(=S)N1CN1CCCCC1	> 100 µM	> 100 µM	37.2	37.1	88.3	> 100 µM	> 100	59.6 µM		91.7 µM						
C=C1CC[C@@H]2[C@](C)(COC(=O)CCC(=O)OC)CCC[C@@]2(C)[C@@H]1CCC1=CC(=O)OC1		> 100 µM	> 100	> 100	> 100	> 100 µM	> 100	> 100 µM	> 100 µM	> 100 µM						
COc1cc(CCN)c(OC)c(OC)c1	> 100 µM	> 100 µM	> 100	> 100	> 100	> 100 µM	> 100	> 100 µM		> 100 µM						
S=c1[nH]nc(Cn2c3ccc(Br)cc3c3nc4ccccc4nc32)o1	> 82.6 µM	> 100 µM	> 100	> 88.6	> 93.2	> 100 µM		> 73.7 µM	> 80.7 µM	> 100 µM						
C/C=C1/C=CC2c3[nH]c4ccccc4c3CCN2C1 (stereo not drawn)	> 400 µM	> 400 µM	> 400	> 400		> 400 µM		> 400 µM	> 400 µM							
CCOC(=O)c1c(Cl)c2c(n1Cc1ccccc1)-c1oncc1CCC2	> 100 µM	> 100 µM	> 100		> 100	> 100 µM				> 100 µM	4.01	3.71	3.53	3.17	5.89	4.38
COC(=O)[C@@H]1Cc2ccc(OC)c(c2)OCCC(=O)N1	> 100 µM	> 100 µM	> 100	> 100	> 100	> 100 µM	> 100	> 100 µM								
CCN(CC)/[N+]([O-])=N/OS(=O)(=O)N(C)C	> 100 µM	> 100 µM	> 100			> 100 µM	> 100	> 100 µM	> 100 µM	> 100 µM						
CCOC(=O)c1c(C)n(-c2ccc(C)cc2)c(=O)c2ccccc2c(=O)c2c(=O)ccc(=O)c1=2	52 µM	30.3 µM	36.1	61	56.6	31.9 µM	44.7	29.8 µM	43.7 µM							

— PubChem BioAssay (NCI)
